Tests used:
Type in all cases: protein assay
[1] = target: T1, Trypsin (Homo sapiens, UniProt P07477+P07478+P35030); assay: Inhibition of trypsin (unknown origin) using BApNA as substrate incubated for 15 min prior to substrate addition measured after 30 min by UV/VIS spectrophotometric analysis
[2] = target: T1, Trypsin; assay: Inhibition of trypsin (unknown origin) using BApNA as substrate at 2 mg/ml incubated for 15 min prior to substrate addition measured after 30 min by UV/VIS spectrophotometric analysis
[3] = target: T1, Trypsin; assay: Non-competitive inhibition of trypsin (unknown origin) using BApNA as substrate by Lineweaver-Burk/Dixon plot analysis

## O=S(=O)(F)Cc1ccccc1 [PHENYLMETHYLSULFONYLFLUORIDE]
[1]
  IC50: 110 µM
[2]
  inhibition: 87.4%

## O=c1c(O)c(-c2ccc(O)c(O)c2)oc2cc(O)cc(O)c12 [QUERCETIN]
[3]
  Ki: 13.1 µM
[1]
  IC50: 19 µM
[2]
  inhibition: 84.1%

## C[C@@H]1O[C@@H](OC[C@H]2O[C@@H](Oc3c(-c4ccc(O)c(O)c4)oc4cc(O)cc(O)c4c3=O)[C@H](O)[C@@H](O)[C@@H]2O)[C@H](O)[C@H](O)[C@H]1O [RUTIN]
[3]
  Ki: 17.5 µM
[1]
  IC50: 16 µM
[2]
  inhibition: 75.2%

Reference: ChEMBL document CHEMBL3045620, “Trypsin inhibitory potential and microbial transformation of rutin isolated from Citrus sinensis” (Med Chem Res, 2013)
